# Test results as given in patent publication US20230365988A1, “MOUSE MODEL FOR BIO-IMAGING OF INFLAMMATORY SIGNALS, PREPARATION METHOD THEREFOR AND USE THEREOF” (KOREA MOUSE PHENOTYPING CENTER, priority 2020, published 2023).
# Entries after “also recorded” stand apart in the source; their conditions may differ.
# Columns and labels:
# NF-κB [1] = test: Western blotting of luciferase expression in LPS-treated bone marrow-derived macrophages; format: cell-based, mouse; details: LPS 10 ng/ml and 100 ng/ml, 6 hours
# Description: (§1) Macrophages, mononuclear cells, derived from the bone marrow of the mouse model established in Example <2-1> were differentiated, luciferase activity was confirmed, and NF-κ activity and luciferase protein expression were confirmed by Western blotting. In addition, 20 uM BAY 11-7082 (NF-kB inhibitor) was treated simultaneously with LPS in the same manner as above to evaluate the luciferase activity.
# For Western blotting, the detached cells were diluted in RPMI 1640 culture medium, and then distributed in a 6 well plate at the density of 70,000 cells/well, followed by culture. After 24 hours of culture, the experimental group was treated with LPS at the concentrations of 10 ng/ml and 100 ng/ml for 6 hours. The culture medium was removed and homogenized with a buffer containing 20 mM Tris-HCl (pH 7.4), 1% Triton X-100, 15 mM NaCl and protease inhibition cocktail, and centrifuged at 4° C., 13,000 g for 20 minutes. Then, SDS-PAGE (sodium dodecyl sulfate-polyacrylamide gel electrophoresis) was performed using the supernatant to separate proteins. The separated proteins were transferred to a PVDF membrane and blocked with TBST buffer (Tris-Buffered Saline, 0.1% TWEEN 20) containing 5% skim milk powder. […]
# NF-κB [2] = test: Luciferase activity in LPS-treated bone marrow-derived macrophages of the myeloid-specific NF-κB reporter mouse; format: cell-based; details: 6 hours
# Description: as §1
# Particularly, the mouse was euthanized with CO2, the femur and tibia were obtained, and the bone marrow cavity was exposed. Then, RPMI 1640 culture medium (10% FBS, 1% penicillin, stretptomycin) containing M-CSF was passed through using a 1 ml syringe, and the contents were collected to make 6 ml of the culture medium. Thereafter, the contents were transferred to a Petri dish and cultured for 3 days at 37° C. under 5% CO2 conditions, and then the medium was replaced with fresh RPMI 1640 culture medium. After 3 days, the culture medium was removed from the Petri dish and washed with PBS (phosphate buffered saline). […] After 6 hours, the culture medium was removed, and 100 μl of HBSS (Hanks' Balanced Salt solution) containing D-luciferin was added to each well of the plate, and then the luciferase activity was evaluated.
# NF-κB [3] = test: PMA-induced ear edema model, luciferase imaging; format: in vivo; details: 2 μg PMA on left ear twice at a 24 hour interval, measured 24 hours later, Lyz2-Cre reporter mouse
# Description: To confirm imaging of inflammatory signals in the mouse model established in Example <2-1>, ear edema was induced by treatment with PMA (phorbol 12-myristate 13-acetate), an inflammatory factor.
# Particularly, the left ear of the mouse was treated with 2 μg/40 ? of PMA diluted in ethanol using a micropipette, and the right ear was treated with the same amount of ethanol (40 ? ). After 24 hours, the left ear was treated with 2 μg of PMA, and the right ear was treated with the same amount of ethanol (40 ? ). After another 24 hours, 100 ? of D-luciferin (15 mg/ml in PBS) was intraperitoneally administered using a 1 ml syringe, and luciferase signals were measured in the ears of the mouse under respiratory anesthesia with isoflurane.
# NF-κB [4] = test: DSS-induced colitis model, luciferase imaging; format: in vivo; details: 3% DSS as drinking water, days 3 and 5, Lyz2-Cre reporter mouse
# Description: Colitis was induced by DSS (dextran sulfate sodium salt) in the mouse model established in Example <2-1>, and it was confirmed whether bio-imaging of inflammatory signals over time was possible.
# Particularly, 6 g of DSS was added to sterilized tertiary distilled water and stirred for 60 minutes to prepare a 3% DSS aqueous solution. […] After the measurement, the 3% DSS aqueous solution was supplied as drinking water to the mice. While maintaining DSS supply, 100 ? of D-luciferin (15 mg/ ? in PBS) was intraperitoneally administered using a 1 ? syringe on the days after 3 and 5 days after the start of DSS supply, and luciferase signals were measured in the abdomen.
compound,measurement,setting,value
lipopolysaccharide [LPS],luciferase expression by Western blotting,NF-κB [1],luciferase expression was increased
same,luciferase signal activity,NF-κB [2]; LPS 10 ng/ml and 100 ng/ml,increased by LPS dose-dependently
"CCCCCCCCCCCCCC(=O)O[C@@H]1[C@@H](C)[C@@]2(O)[C@@H](C=C(CO)C[C@]3(O)C(=O)C(C)=C[C@@H]23)[C@@H]2C(C)(C)[C@]12OC(C)=O [PMA, phorbol 12-myristate 13-acetate]",luciferase signal in treated left ear compared to ethanol-treated right ear,NF-κB [3],specifically strong
Cc1ccc(S(=O)(=O)/C=C/C#N)cc1 [BAY 11-7082],LPS-increased luciferase signal activity (NF-kB activity) after inhibitor treatment,NF-κB [2]; 20 uM BAY 11-7082 simultaneously with LPS (10 and 100 ng/ml),inhibited; also recorded: suppressed
dextran sulfate sodium salt [DSS],luciferase signal in the large intestine region of the abdomen,NF-κB [4],strongly expressed
